Experimental data: a melting point compilation (Tetko et al.; mined from patent text by program, amines drawn as free bases though some values may be those of a salt)

Row | melting point | Compound
1 | 165 to 168 °C | Clc1cc(Cl)c(Oc2nc(Oc3c(Cl)cc(Cl)c(Cl)c3Cl)nc(Oc3c(Cl)cc(Cl)c(Cl)c3Cl)n2)c(Cl)c1Cl
2 | 77 °C | CN(C)CCCC(N)=S
3 | 80 to 86 °C | CC#CCOc1ccc(S(=O)(=O)NC(C(=O)NO)c2ccc(OCCN3CCOCC3)cc2)cc1 (stereo not given)
4 | 182 to 184 °C | COc1nc(C)cnc1NS(=O)(=O)c1cccnc1-c1ccc(OC(C)(C)CO)cc1
5 | 67 to 69 °C | CCOC(=O)CN1CCN(C(=O)OC(C)(C)C)CC1
6 | 275 to 276 °C | O=c1cc(-c2ccc(O)c(F)c2)oc2ccccc12
7 | 225 °C | COc1cc(-c2ccc3cc4c(cc3c2C=O)OCO4)c([N+](=O)[O-])cc1OC
8 | 211 to 213 °C | O=C(O)CCOc1cccc2cccnc12
9 | 136 to 137 °C | O=C(NC/C=C\COc1cc(CN2CCCCC2)ccn1)c1ccc[nH]1
10 | 90 to 91 °C | COc1cccc(Oc2cccc(C#CC(C)N(O)C(N)=O)c2)n1 (stereo not given)
11 | 209 to 211 °C | Cn1c(=O)n(-c2cc(Cl)cc(Cl)c2)c(=O)n1C
12 | 81 to 84 °C | Cc1ccc(C)c(-c2ccc(S(=O)(=O)N3c4ccccc4CC3C(=O)NCCOc3ccc(CC(=O)O)cc3)cc2)c1 (stereo not given)
13 | 278 to 279 °C | Cc1sc(N2CCOCC2)nc1/C=C/c1cn(-c2ccccc2)nc1O
14 | 241 to 243 °C | CCCCOC(=O)c1cc(=O)c2c3c(cc(Cl)c2o1)-c1ccc(S(=O)(=O)O)cc1C(C)(C)O3
15 | 101 to 104 °C | N#Cc1cccc(OS(N)(=O)=O)c1
16 | 138 to 140 °C | CCc1nc2c(cnn2CC)c(NC2CCOCC2)c1CNC(=O)c1cccc(C(=O)NCc2ccc(C)c(-c3cccc(CN4CC5CC4CN5)c3)c2)c1 (stereo not given)
17 | 56 to 58 °C | COC1=C(OC)C(=O)C2=C(CC(CCCCCCCCO)C2)C1=O
18 | 181 to 183 °C | C[C@@H](n1ncn(-c2ccc(-n3ncn(-c4ccc(OCC(F)(F)C(F)F)cc4)c3=O)cc2)c1=O)[C@@]1(c2ccc(F)cc2F)CO1
19 | 113 to 115 °C | Cn1ccnc1Sc1c(Cl)cccc1Cl
20 | 108 to 110 °C | CC(NC(=O)OCc1ccccc1)P(C)(=O)OCc1ccccc1 (stereo not given)
21 | 145 to 150 °C | CC(C)c1ccc(NC(=O)Oc2ccc3c(c2)CCN3Cc2ccccc2)cc1
22 | 105 to 106 °C | CN(Cc1ccccc1)C(=O)c1ccc2nonc2c1
23 | 42 to 43 °C | c1ccc(OCC2CCNCC2)cc1

Row | melting point | Compound
24 | 61 to 64 °C | COc1cc(C=O)ccc1OCCBr
25 | 130 °C | O=C(Nc1ccc2ccc(N3CCCC3)nc2n1)c1ccccc1
26 | 221 to 222 °C | COC(=O)c1ccc(C(=O)Nc2cc3c4c(c2)CCCC4CCC3)s1
27 | 276 to 285 °C | Cc1cc2nc(C(=O)O)c(=O)[nH]c2cc1C
28 | 132 to 133 °C | C=C1C=CC2CC1C(Cc1ccc(OC)cc1)NC2=O (stereo not given)
29 | 122 to 124 °C | COc1ccc(C2Sc3c(ccc4ccccc34)N(CCN(C)C)C(=O)C2OC(C)=O)cc1 (stereo not given)
30 | 310 to 316 °C | O=C(O)c1ccc2sc3ccccc3c(=O)c2c1
31 | 150 °C | CCCCn1ccc(N2CCC(c3ccc(C(C)(C)O)cc3F)CC2)c(Cl)c1=O
32 | 160 to 161 °C | CCOC(=O)CCc1sc(N)nc1-c1ccc(Cl)cc1
33 | 181 to 184 °C | Cc1[nH]c2ccc(O)cc2c1C(=O)NC1CCN(CCCc2ccccc2)CC1
34 | 69 to 70 °C | COc1c(C(C)(C)C)cc(P(c2cc(C(C)(C)C)c(OC)c(C(C)(C)C)c2)c2ccccc2P2c3ccccc3CC2C(C)C)cc1C(C)(C)C (single isomer, unassigned; (+))
35 | 210 to 213 °C | COC(=O)C1C=CCn2c(=O)[nH]c(=O)n21 (stereo not given)
36 | 227 to 230 °C | CC(=O)Oc1nc(-c2ccc(C(=O)O)cc2)sc1C
37 | 175 to 176 °C | CCOC(=O)c1c(-c2cccc(C)c2)csc1N1C(=O)c2ccccc2C1=O
38 | 203 to 204 °C | Cc1nc(-c2ccccc2)n(-c2ccc(S(N)(=O)=O)cn2)n1
39 | 109 to 112 °C | CCOP(=O)(Cc1cc(C)cc(C)n1)OCC
40 | 164 to 165 °C | Cc1csc(C)c1C(=O)O
41 | 57 °C | CC1=CC(=O)C=CC1(C)C(Cl)(Cl)Cl (stereo not given)
42 | 270 to 273 °C | CCn1cc(C(=O)O)c(=O)c2cc(F)c(N3CCSC3)cc21
43 | 94 to 96 °C | CC1(C)OC(C=Cc2ccncc2)=CC1=O
44 | 131 to 133 °C | O=C(/C=C/C=C/c1ccccc1[N+](=O)[O-])NCCCCCC(=O)NO
45 | 145 to 148 °C | O=C(NCCN1CCOCC1)c1ccc2nonc2c1
46 | 197 to 198 °C | Cc1csc(NC(=O)c2ccc(CN3CCN(c4nc(C)cs4)C3=O)cc2)n1

Row | melting point | Compound
47 | 208 to 211 °C | CN(C)C(=O)/C=C/c1ccc(C(=O)c2c(-c3ccc(O)cc3)sc3cc(O)ccc23)cc1
48 | 199 to 201 °C | CC(C)(C)Nc1c([N+](=O)[O-])cc([N+](=O)[O-])c2nc(C(F)F)[nH]c12
49 | 232 to 233 °C | CC(C)(C)c1cc(C=C2Sc3ccccc3N(CP(=O)(O)O)C2=O)cc(C(C)(C)C)c1O
50 | > 300 °C | CCOC(=O)c1cnc2cc(OC)c(OC)cc2c1
51 | 144 to 145 °C | COc1ccc(C2=NN(c3ccccc3C)C(=O)[C@H]3CC=CC[C@@H]23)cc1OC (relative stereo)
52 | 105 to 107 °C | O=C1c2ccccc2CN2C(=O)CCC12 (stereo not given)
53 | 158 °C | CC1(C)Cc2c(c(N3CCCCC3)nc3sc4c(NCCN5CCOCC5)ncnc4c23)CO1
54 | 83 to 85 °C | CC(C)c1cc(C(=O)Nc2ccc(OCC(=O)O)cc2)oc1C(C)C
55 | 190 to 191 °C | CCOC(=O)c1cc2ccc3c(c2cc1OC)OC(n1cccc1)=C(C#N)C3c1cccc([N+](=O)[O-])c1 (stereo not given)
56 | 129 to 130 °C | Cc1oc(-c2ccccc2)nc1COc1nn(Cc2ccc(Oc3ccccc3)cc2)cc1C=O
57 | 87 to 90 °C | CS(=O)(=O)c1ccc(-c2cnn(Cc3ccccc3C(F)(F)F)c(=O)c2-c2ccc(F)cc2)cc1
58 | 220 °C | COc1cccc(C2=C(C#N)C(c3cccc4nsnc34)c3c[nH]nc3N2)c1 (stereo not given)
59 | 116 to 118 °C | O=C1N(Cc2ccc(C(F)(F)F)o2)c2c(F)cccc2C12COc1cc3c(cc12)OCO3 (stereo not given)
60 | 184 to 185 °C | CC12CCC(O)CC1CCC1C2CCC2(C)C1CCC2(SCc1ccccc1)SCc1ccccc1 (stereo not given)
61 | 106 °C | CN(CCNC(=NCCCOc1cccc(CN2CCCCC2)c1)NC#N)CCN(Cc1ccc(F)cc1)c1ccccn1
62 | 120 to 122 °C | CCn1cc(C(=O)O)c(=O)c2cc(F)c(N3CCCC(CN)C3)nc21 (stereo not given)
63 | 177 to 179 °C | Cn1ccc2cc(-c3ccc(S(=O)(=O)n4ccc(/C=C/C(=O)NO)c4)cc3)ccc21
64 | 110 °C | CC(C)(C)NS(=O)(=O)c1cncc(Br)c1
65 | 195 °C | O=c1[nH]c2cccnc2n1-c1ccccc1F
66 | 115 °C | CCCOC(=O)Nc1cccc(NC(=O)C=C(C)OC)c1
67 | 51.3 to 52.9 °C | O=[N+]([O-])c1ccc(C(Cl)(Cl)Br)cc1

Row | Compound | melting point
68 | Fc1ccc(CN2CC=C(c3cc4ccccc4s3)CC2)cc1 | 142 to 144 °C
69 | C[C@H](N)Cn1ncc2ccc3oc(C(=O)NCC(C)(C)CO)cc3c21 | 103 °C
70 | CC(=O)NC(=S)NCC1CC2c3cccc4c3c(cn4C)CC2N(C)C1 (stereo not given) | 195 to 197 °C
